From paper PMC7996082, “The translocator protein ligands as mitochondrial functional modulators for the potential anti-Alzheimer agents” (Journal of Enzyme Inhibition and Medicinal Chemistry, 2021)
Where two headings read alike, the source gives them in different places.

Legend:
CYP2D6 = biological target: T1, CYP2D6 (Homo sapiens, UniProt P10635); assay: CYP inhibition assay (Vivid CYP450 screening kit); assay type: in vitro ADME; details: 10 μM compound
T1 construct: purchased Invitrogen, Madison, WI, USA
Procedure: (§1) Human CYP450 (CYP1A2, 2D6, 2C9, 2C19, and 3A4) activities were determined by using the Vivid® CYP450 screening kit (Invitrogen, Madison, WI, USA) in a clear 96-well plate. Five positive controls were used as 10 mM solutions in MeCN for five different CYP450 enzymes: CYP1A2 (α-naphthoflavone), CYP2D6 (quinidine), CYP2C9 (sulfaphenazole), CYP2C19 (lansoprazole), and CYP3A4 (ketoconazole). Each sample (test compounds, positive inhibition controls, and solvent controls) was added into each well with the Master Pre-Mix [CYP450 BACULOSOMES® Reagent (recombinant human CYP450 isozyme and rabbit NADPHP450 reductase) and Regeneration System (3.3 mM glucose-6-phosphate and 0.3 U/ml glucose-6-phosphate dehydrogenase in 100 mM potassium phosphate, pH 8.0)]. The mixture was incubated for 5 min at 37 °C, and the Vivid® CYP substrates and 0.1 mM NADP^+ buffer were added to initiate the CYP450 enzyme reaction. The % remaining activities of CYP450 were measured after 20 min by using a fluorescent plate reader (Flexstation® 3, Molecular Devices, USA).

CYP1A2 = biological target: T2, CYP1A2 (Homo sapiens, UniProt P05177); assay: CYP inhibition assay (Vivid CYP450 screening kit); assay type: in vitro ADME; details: 10 μM compound
T2 construct: purchased Invitrogen, Madison, WI, USA
T2 sequence (P05177 2-516 limits assumed): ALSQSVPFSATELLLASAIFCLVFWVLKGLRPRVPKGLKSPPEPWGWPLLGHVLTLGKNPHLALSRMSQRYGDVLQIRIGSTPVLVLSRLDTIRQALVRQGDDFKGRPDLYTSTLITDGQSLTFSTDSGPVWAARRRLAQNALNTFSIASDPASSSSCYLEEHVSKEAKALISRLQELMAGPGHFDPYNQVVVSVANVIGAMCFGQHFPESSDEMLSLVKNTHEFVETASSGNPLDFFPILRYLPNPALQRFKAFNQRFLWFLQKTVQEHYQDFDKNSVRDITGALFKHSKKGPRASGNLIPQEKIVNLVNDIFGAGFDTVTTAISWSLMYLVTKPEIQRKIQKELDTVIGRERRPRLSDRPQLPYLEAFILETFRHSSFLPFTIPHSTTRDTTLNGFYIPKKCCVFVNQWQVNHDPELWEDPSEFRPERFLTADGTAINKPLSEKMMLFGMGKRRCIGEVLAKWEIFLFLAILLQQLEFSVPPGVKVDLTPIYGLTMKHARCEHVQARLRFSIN
Procedure: as §1

CYP2C19 = biological target: T3, CYP2C19 (Homo sapiens, UniProt P33261); assay: CYP inhibition assay (Vivid CYP450 screening kit); assay type: in vitro ADME; details: 10 μM compound
T3 construct: purchased Invitrogen, Madison, WI, USA
Procedure: as §1

CYP2C9 = biological target: T4, CYP2C9 (Homo sapiens, UniProt P11712); assay: CYP inhibition assay (Vivid CYP450 screening kit); assay type: in vitro ADME; details: 10 μM compound
T4 construct: purchased Invitrogen, Madison, WI, USA
Procedure: as §1

CYP3A4 = biological target: T5, CYP3A4 (Homo sapiens, UniProt P08684); assay: CYP inhibition assay (Vivid CYP450 screening kit); assay type: in vitro ADME; details: 10 μM compound
T5 construct: purchased Invitrogen, Madison, WI, USA
Procedure: as §1

recombinant human TSPO = biological target: T6, recombinant human TSPO (Homo sapiens, UniProt P30536); assay: Surface plasmon resonance (SPR) binding affinity; details: mean ± SD of three measurements
T6 construct: purchased Origene Technologies, Inc. TP320107
Procedure: To determine the binding affinities of the selected compounds, the KD values were measured by using Biacore T200 optical biosensor system (GE Healthcare). The recombinant human TSPO (18 kDa, Origene Technologies, Inc., No.: TP320107) was covalently immobilised on a CM5 chip (GE Healthcare) at 25 °C via standard amine-coupling protocols in 10 mM sodium acetate (pH 4.5) at a flow rate of 10 µL/min for 1500s (immobilised protein densities: 5,000–6,000 response unit (RU)). The tested compounds were initially prepared at 10 mM in DMSO, and serially diluted in PBS-P buffer (10 mM NaH2PO4, 150 mM NaCl, pH 7.4) to 1% DMSO. For each tested compound, the kinetic values were measured using a five-point concentration series, 0.001, 0.01, 0.5, 1, and 5 µM. Multiple blank samples of running buffer alone (0 µM of tested compounds) were incorporated in every measurement. The filtered PBS-P buffer containing 1% DMSO was used as a running buffer during the SPR experiments. To measure the kinetic values, a series of different concentrations were injected over the immobilised chip at a flow rate of 50 µL/min (contact time: 120 s, dissociation time: 300 s), followed by the regeneration process at a flow rate of 50 µL/min (contact time: 120 s, stabilisation time: 10 s). The KD value of each compound was calculated by Biacore T200 evaluation software (GE Healthcare) after the standard solvent correction process.

[1] = Pharmacokinetic study in SD male rats; assay type: in vivo, rat; details: 10 mg/kg; for AUC(0-inf) / AUC(0-t) / clearance / Vd / bioavailability / Tmax / half-life / Cmax: Sprague-Dawley, rat, plasma; for bioavailability: oral vs intravenous; for half-life: male
Procedure: Each test compound at a dose of 10 mg/kg was administered intravenously or orally to male Sprague-Dawley (SD) rats. Blood samples collected via carotid artery at several time points after administration of each compound were stored at −70 °C until LC-MS/MS analysis. To determine the plasma concentration of each compound, a 0.1 µg/mL of internal standard in 100 µL of MeCN was added to 50 µL of plasma samples. After vortex-shaking and centrifugation at 10,000 rpm for 10 min, 5 µL of the supernatant was analysed by LC-MS/MS [HP1100® HPLC system (Agilent, Santa Clara, CA) combined with API3200® triple-quadrupole mass spectrometer (Applied Biosystems-SCIEX, Concord, Canada)]. The HPLC chromatographic separation was performed on a reversed-phase Xterra® C18 column (Waters Corporation, Milford, MA) using gradient elution consisted of 0.1% formic acid and 0.1% formic acid in 90% MeCN at a flow rate of 0.3 ml/min.

[2] = intravenous, n = 3, read-out: Vss
[3] = n = 3, read-out: F (bioavailability)
[4] = iv, intravenous, n = 3, read-out: Terminal half-life
[5] = po, oral, n = 3, read-out: Terminal half-life

T6 sequence (P30536 whole entry): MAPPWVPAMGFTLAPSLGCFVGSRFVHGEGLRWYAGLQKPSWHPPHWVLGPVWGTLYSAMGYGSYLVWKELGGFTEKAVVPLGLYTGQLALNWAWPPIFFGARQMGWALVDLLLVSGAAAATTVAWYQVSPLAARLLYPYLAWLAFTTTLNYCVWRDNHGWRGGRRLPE
T5 sequence (P08684 2-503 limits assumed): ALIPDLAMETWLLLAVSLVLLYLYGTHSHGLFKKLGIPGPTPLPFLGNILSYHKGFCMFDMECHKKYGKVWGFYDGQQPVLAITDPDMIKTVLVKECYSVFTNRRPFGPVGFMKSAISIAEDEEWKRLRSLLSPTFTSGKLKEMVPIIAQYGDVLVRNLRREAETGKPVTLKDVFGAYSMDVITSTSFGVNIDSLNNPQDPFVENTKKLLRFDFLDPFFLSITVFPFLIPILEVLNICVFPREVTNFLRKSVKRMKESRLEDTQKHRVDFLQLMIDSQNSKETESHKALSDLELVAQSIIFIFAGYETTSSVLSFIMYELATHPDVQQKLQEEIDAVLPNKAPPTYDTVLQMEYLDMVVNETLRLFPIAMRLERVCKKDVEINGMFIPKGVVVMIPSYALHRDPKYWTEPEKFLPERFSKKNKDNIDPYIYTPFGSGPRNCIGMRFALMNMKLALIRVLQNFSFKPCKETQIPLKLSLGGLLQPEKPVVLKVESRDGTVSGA
T1 sequence (P10635 whole entry): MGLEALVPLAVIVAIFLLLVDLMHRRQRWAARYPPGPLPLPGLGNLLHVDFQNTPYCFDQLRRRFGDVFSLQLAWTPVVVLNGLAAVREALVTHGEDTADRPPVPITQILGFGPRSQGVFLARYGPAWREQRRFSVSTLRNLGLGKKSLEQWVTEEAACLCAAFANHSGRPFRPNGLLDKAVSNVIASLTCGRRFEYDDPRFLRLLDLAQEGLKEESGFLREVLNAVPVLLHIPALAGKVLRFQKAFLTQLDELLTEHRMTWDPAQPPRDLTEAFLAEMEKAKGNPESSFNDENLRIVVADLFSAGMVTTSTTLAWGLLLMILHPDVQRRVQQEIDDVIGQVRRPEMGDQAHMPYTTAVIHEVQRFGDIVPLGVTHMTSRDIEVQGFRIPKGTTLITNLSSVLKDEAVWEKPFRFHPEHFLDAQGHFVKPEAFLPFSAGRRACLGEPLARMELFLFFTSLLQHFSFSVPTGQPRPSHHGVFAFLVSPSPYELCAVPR
T3 sequence (P33261 whole entry): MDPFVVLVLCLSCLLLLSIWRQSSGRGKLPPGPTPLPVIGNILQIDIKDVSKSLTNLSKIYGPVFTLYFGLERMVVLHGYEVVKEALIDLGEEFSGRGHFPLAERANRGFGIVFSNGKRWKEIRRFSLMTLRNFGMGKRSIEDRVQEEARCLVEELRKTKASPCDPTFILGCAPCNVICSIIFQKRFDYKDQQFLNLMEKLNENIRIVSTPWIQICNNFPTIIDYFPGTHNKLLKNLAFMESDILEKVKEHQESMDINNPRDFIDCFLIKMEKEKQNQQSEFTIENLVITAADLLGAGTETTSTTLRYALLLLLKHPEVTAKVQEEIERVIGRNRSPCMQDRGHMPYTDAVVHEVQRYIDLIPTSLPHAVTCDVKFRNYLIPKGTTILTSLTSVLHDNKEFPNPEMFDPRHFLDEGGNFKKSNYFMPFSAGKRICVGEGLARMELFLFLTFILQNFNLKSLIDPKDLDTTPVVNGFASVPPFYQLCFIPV
T4 sequence (P11712 whole entry): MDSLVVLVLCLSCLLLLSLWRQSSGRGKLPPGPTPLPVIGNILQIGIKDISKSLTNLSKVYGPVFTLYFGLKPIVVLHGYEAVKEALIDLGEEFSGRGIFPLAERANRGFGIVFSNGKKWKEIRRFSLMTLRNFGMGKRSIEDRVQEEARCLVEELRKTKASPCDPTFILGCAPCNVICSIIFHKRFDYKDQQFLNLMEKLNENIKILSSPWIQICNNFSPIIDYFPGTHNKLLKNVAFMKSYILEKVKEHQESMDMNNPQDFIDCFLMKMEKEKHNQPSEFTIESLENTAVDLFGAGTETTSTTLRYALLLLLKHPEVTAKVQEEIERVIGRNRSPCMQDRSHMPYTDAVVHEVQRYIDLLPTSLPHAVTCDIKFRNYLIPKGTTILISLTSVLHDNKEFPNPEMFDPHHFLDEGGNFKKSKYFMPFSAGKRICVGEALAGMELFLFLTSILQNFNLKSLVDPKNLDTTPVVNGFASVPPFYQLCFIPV

CCOc1ccc(-n2c(SCC(=O)NC3CCN(C)CC3)nc3sc4c(c3c2=O)CCN(C(C)=O)C4)cc1 [Compound 30]
CYP450 (% remaining Activity at 10 μM) CYP2D6 (CYP2D6): 118.5% | CYP450 (% remaining Activity at 10 μM) CYP1A2 (CYP1A2): 119.7% | CYP450 (% remaining Activity at 10 μM) CYP2C19 (CYP2C19): 107.6% | CYP450 (% remaining Activity at 10 μM) CYP2C9 (CYP2C9): 93.0% | CYP450 (% remaining Activity at 10 μM) CYP3A4 (CYP3A4): 31.0%

CCOc1ccc(-n2c(SCC(=O)N(C)Cc3ccccc3)nc3sc4c(c3c2=O)CCN(C)C4)cc1 [Compound 50]
CYP450 (% remaining Activity at 10 μM) CYP2D6 (CYP2D6): 30.0% | CYP450 (% remaining Activity at 10 μM) CYP1A2 (CYP1A2): 97.3% | CYP450 (% remaining Activity at 10 μM) CYP2C19 (CYP2C19): 47.9% | CYP450 (% remaining Activity at 10 μM) CYP2C9 (CYP2C9): 66.4% | CYP450 (% remaining Activity at 10 μM) CYP3A4 (CYP3A4): 36.5%

CCOc1ccc(-n2c(SCC(=O)Nc3ccc(OC)c(OC)c3)nc3sc4c(c3c2=O)CCN(C(C)=O)C4)cc1 [Compound 7]
CYP450 (% remaining Activity at 10 μM) CYP2D6 (CYP2D6): 83.3% | CYP450 (% remaining Activity at 10 μM) CYP1A2 (CYP1A2): 69.0% | CYP450 (% remaining Activity at 10 μM) CYP2C9 (CYP2C9): 72.5% | CYP450 (% remaining Activity at 10 μM) CYP3A4 (CYP3A4): 69.9% | Kd (recombinant human TSPO): 630 ± 330 nM | AUC(0-inf) ([1]; intravenous, n = 5, Table S3): 6030 ng·h/mL | AUC(0-t) ([1]; intravenous, n = 5, Table S3): 6000 ng·h/mL | clearance ([1]; intravenous, n = 5, Table S3): 28.9 ± 7.09 mL/min/kg | Vd ([1]; intravenous, n = 5, Table S3, read-out: Vss): 1.74 L/kg | bioavailability ([1]; n = 5, Table S3, read-out: F (bioavailability)): 37.3% | AUC(0-inf) ([1]; oral, n = 5, Table S3): 2250 ng·h/mL | AUC(0-t) ([1]; oral, n = 5, Table S3): 1930 ng·h/mL | Tmax ([1]; oral, n = 5, Table S3): 2.2 h | half-life ([1]; iv, intravenous, n = 5, Table S3, read-out: Terminal half-life): 1.04 ± 0.0785 h | half-life ([1]; po, oral, n = 5, Table S3, read-out: Terminal half-life): 2.35 ± 1.04 h

CCOc1ccc(-n2c(SCC(=O)NCc3ccccc3)nc3sc4c(c3c2=O)CCN(C(C)=O)C4)cc1 [Compound 31]
CYP450 (% remaining Activity at 10 μM) CYP2D6 (CYP2D6): 88.1% | CYP450 (% remaining Activity at 10 μM) CYP1A2 (CYP1A2): 143.1% | CYP450 (% remaining Activity at 10 μM) CYP2C19 (CYP2C19): 70.0% | CYP450 (% remaining Activity at 10 μM) CYP2C9 (CYP2C9): 51.1% | CYP450 (% remaining Activity at 10 μM) CYP3A4 (CYP3A4): 18.3% | Kd (recombinant human TSPO): 1250 ± 400 nM | AUC(0-t) ([1]; intravenous, n = 3): 4560 ng·h/mL | clearance ([1]; intravenous, n = 3): 32.5 ± 10.1 mL/min/kg | AUC(0-inf) ([1]; intravenous, n = 3, mean ± SD): 5510 ng·h/mL | Vd [1, 2]: 7.74 ± 1.11 L/kg | bioavailability [1, 3]: 8% | AUC(0-t) ([1]; oral, n = 3): 194 ng·h/mL | Cmax ([1]; oral, n = 3): 40 ± 20 ng/mL | AUC(0-inf) ([1]; oral, n = 3, mean ± SD): 443 ng·h/mL | Tmax ([1]; oral, n = 3, range in brackets): 0.8 h | half-life [1, 4]: 2.9 ± 0.54 h | half-life [1, 5]: 7.47 ± 0.46 h

CCOc1ccc(-n2c(SCC(=O)NCc3ccccc3)nc3sc4c(c3c2=O)CCN(C)C4)cc1 [Compound 49]
CYP450 (% remaining Activity at 10 μM) CYP2D6 (CYP2D6): 43.1% | CYP450 (% remaining Activity at 10 μM) CYP1A2 (CYP1A2): 95.3% | CYP450 (% remaining Activity at 10 μM) CYP2C19 (CYP2C19): 90.0% | CYP450 (% remaining Activity at 10 μM) CYP2C9 (CYP2C9): 99.6% | CYP450 (% remaining Activity at 10 μM) CYP3A4 (CYP3A4): 28.1%

CCOc1ccc(-n2c(SCC(=O)N3CCN(c4ccccc4)CC3)nc3sc4c(c3c2=O)CCN(C(C)=O)C4)cc1 [Compound 44]
CYP450 (% remaining Activity at 10 μM) CYP2D6 (CYP2D6): 117.3% | CYP450 (% remaining Activity at 10 μM) CYP1A2 (CYP1A2): 92.0% | CYP450 (% remaining Activity at 10 μM) CYP2C19 (CYP2C19): 28.3% | CYP450 (% remaining Activity at 10 μM) CYP2C9 (CYP2C9): 84.4% | CYP450 (% remaining Activity at 10 μM) CYP3A4 (CYP3A4): 72.2% | Kd (recombinant human TSPO): 2740 ± 660 nM | AUC(0-t) ([1]; intravenous, n = 3): 17600 ng·h/mL | clearance ([1]; intravenous, n = 3): 9.43 ± 1.05 mL/min/kg | AUC(0-inf) ([1]; intravenous, n = 3, mean ± SD): 17800 ng·h/mL | Vd [1, 2]: 0.785 ± 0.0396 L/kg | bioavailability [1, 3]: 78.4% | AUC(0-t) ([1]; oral, n = 3): 8120 ng·h/mL | Cmax ([1]; oral, n = 3): 2110 ± 910 ng/mL | AUC(0-inf) ([1]; oral, n = 3, mean ± SD): 10200 ng·h/mL | Tmax ([1]; oral, n = 3, range in brackets): 1.2 h | Terminal half-life ([1]; intravenous, n = 3): 1.336 ± 0.156 h | half-life [1, 4]: 1.33 h | half-life [1, 5]: 3.32 ± 2.24 h
